Measurements from patent US8299056B2 (Signal Pharmaceuticals, LLC, priority 2008, dated 2012).

Each compound was assayed against T1, Syk (Homo sapiens, UniProt P43405) (assay: Syk HTRF assay). Settings: IC50 activity level, read-out: Activity Level.
T1 construct: purchased Carna Biosciences
Type: biochemical
In short: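 HTRF kinase assay in HEPES pH 7.6 buffer with MgCl2, DTT and Triton X100; start mix of 87.5 μM ATP and 80 nM biotinylated peptide, 1 h at room temperature. EDTA stop, then Eu-anti-phosphotyrosine/streptavidin-DyLight 647 detection, read as 665/615 nm emission ratio.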

SMILES	IC50 [nM]
Cn1c(=O)[nH]c2cc(Nc3nc4cccc(CC5CCOCC5)n4n3)ccc21 [Example 532, 1-methyl-5-(5-((tetrahydro-2H-pyran-4-yl)methyl)-[1,2,4]triazolo[1,5-a]pyridin-2-ylamino)-1H-benzo[d]imidazol-2(3H)-one]	0.005 to 250
Cc1cc(Nc2nc3cccc(CC4CCOCC4)n3n2)cnc1N1CCOCC1 [Example 535, N-(5-methyl-6-morpholinopyridin-3-yl)-5-((tetrahydro-2H-pyran-4-yl)methyl)-[1,2,4]triazolo[1,5-a]pyridin-2-amine]	500 to 1000
NC(=O)c1ccc(Nc2nc3cccc(N[C@H]4CC[C@@H](O)CC4)n3n2)cc1 [Example 429, cis-4-(5-(4-hydroxycyclohexylamino)-[1,2,4]triazolo[1,5-a]pyridin-2-ylamino)benzamide]	0.005 to 250
NC(=O)c1cccc(Cc2cccc3nc(Nc4ccccc4)nn23)c1 [Example 442, 3-((2-(phenylamino)-[1,2,4]triazolo[1,5-a]pyridin-5-yl)methyl)benzamide]	250 to 500
Cn1ncc2cc(Nc3nc4cccc(CC5CCOCC5)n4n3)ccc21 [Example 550, N-(1-methyl-1H-indazol-5-yl)-5-((tetrahydro-2H-pyran-4-yl)methyl)-[1,2,4]triazolo[1,5-a]pyridin-2-amine]	0.005 to 250
OC1CC[C@H](Nc2cccc3nc(Nc4ccc(C(F)(F)F)cc4)nn23)C1 (stereo in doubt) [Example 419, (1S,3S)-3-(2-(4-(trifluoromethyl)phenylamino)-[1,2,4]triazolo[1,5-a]pyridin-5-ylamino)cyclopentanol]	250 to 500
CNCc1nc2ccc(-c3cccc4nc(Nc5ccc(F)cc5)nn34)cc2[nH]1 [Example 437, N-(4-fluorophenyl)-5-(2-((methylamino)methyl)-1H-benzo[d]imidazol-6-yl)-[1,2,4]triazolo[1,5-a]pyridin-2-amine]	0.005 to 250

The remaining lines, values ahead:

IC50 [nM]	SMILES
250 to 500	N[C@H]1CC[C@@H](Nc2cccc3nc(Nc4ccccc4)nn23)CC1 [Example 508, cis-N^5-(4-aminocyclohexyl)-N^2-phenyl-[1,2,4]triazolo[1,5-a]pyridine-2,5-diamine]
1000 to 10000	Cc1n[nH]c2ncc(Nc3nc4cccc(NC5CCOCC5)n4n3)cc12 [Example 539, N^2-(3-methyl-1H-pyrazolo[3,4-b]pyridin-5-yl)-N^5-(tetrahydro-2H-pyran-4-yl)-[1,2,4]triazolo[1,5-a]pyridin-2,5-diamine]
1000 to 10000	c1ccc(Nc2nc3cccc(OC4CCCCC4)n3n2)cc1 [Example 510]
0.005 to 250	CC1(C)C(=O)Nc2cc(Nc3nc4cccc(N5CCOCC5)n4n3)ccc21 [Example 571, 3,3-dimethyl-6-(5-morpholino-[1,2,4]triazolo[1,5-a]pyridin-2-ylamino)indolin-2-one]
0.005 to 250	NCCOc1cc(Nc2nc3cccc(NC4CCCNC4)n3n2)ccn1 (stereo in doubt) [Example 404, (S)-N^2-(2-(2-aminoethoxy)pyridin-4-yl)-N^5-(piperidin-3-yl)-[1,2,4]triazolo[1,5-a]pyridine-2,5-diamine]

Same assay, conditions: activity levels A-D, read-out: Activity Level (IC50 in the Syk HTRF assay)

SMILES	IC50 [nM]
O[C@H]1CC[C@@H](Nc2cccc3nc(Nc4ccccn4)nn23)CC1 [Example 349, cis-4-(2-(pyridin-2-ylamino)-[1,2,4]triazolo[1,5-a]pyridin-5-ylamino)cyclohexanol]	1000 to 10000
OC1CCN(Cc2cccc3nc(Nc4ccc(C(F)(F)F)cc4)nn23)CC1 [Example 396, 1-((2-(4-(trifluoromethyl)phenylamino)-[1,2,4]triazolo[1,5-a]pyridin-5-yl)methyl)piperidin-4-ol]	1000 to 10000
Cc1cc(Nc2nc3cccc(N[C@H]4CC[C@@H](O)CC4)n3n2)cc2[nH]ncc12 [Example 204, cis-4-(2-(4-methyl-1H-indazol-6-ylamino)-[1,2,4]triazolo[1,5-a]pyridin-5-ylamino)cyclohexanol]	0.005 to 250
CCc1n[nH]c2cc(Nc3nc4cccc(N[C@H]5CC[C@@H](O)CC5)n4n3)ccc12 [Example 245, cis-4-(2-(3-ethyl-1H-indazol-6-ylamino)-[1,2,4]triazolo[1,5-a]pyridin-5-ylamino)cyclohexanol]	0.005 to 250
O[C@H]1CCC[C@H]1Nc1cccc2nc(Nc3ccc(C(F)(F)F)cc3)nn12 (stereo in doubt) [Example 376, (1S,2R)-2-(2-(4-(trifluoromethyl)phenylamino)-[1,2,4]triazolo[1,5-a]pyridin-5-ylamino)cyclopentanol]	1000 to 10000
OC[C@@H]1CCCN1Cc1cccc2nc(Nc3ccc(C(F)(F)F)cc3)nn12 [Example 271, (S)-(1-((2-(4-(trifluoromethyl)phenylamino)-[1,2,4]triazolo[1,5-a]pyridin-5-yl)methyl)pyrrolidin-2-yl)methanol]	1000 to 10000

Now from value to compound:

IC50 [nM]	SMILES
0.005 to 250	O=C1NCc2cc(Nc3nc4cccc(N[C@H]5CC[C@@H](O)CC5)n4n3)ccc21 [Example 253, cis-5-(5-(4-hydroxycyclohexylamino)-[1,2,4]triazolo[1,5-a]pyridin-2-ylamino)isoindolin-1-one]
0.005 to 250	CNC(=O)c1ccc(Nc2nc3cccc(-c4ccc5nc(C)[nH]c5c4)n3n2)cc1 [Example 244, N-methyl-4-(5-(2-methyl-1H-benzo[d]imidazol-6-yl)-[1,2,4]triazolo[1,5-a]pyridin-2-ylamino)benzamide]
0.005 to 250	C[C@]1(O)CC[C@H](Nc2cccc3nc(Nc4ccc(C(F)(F)F)cc4)nn23)CC1 [Example 384, cis-1-methyl-4-(2-(4-(trifluoromethyl)phenylamino)-[1,2,4]triazolo[1,5-a]pyridin-5-ylamino)cyclohexanol]
250 to 500	CN(C)c1ccc(Nc2nc3cccc(N[C@H]4CC[C@@H](O)CC4)n3n2)cn1 [Example 392, cis-4-(2-(6-(dimethylamino)pyridin-3-ylamino)-[1,2,4]triazolo[1,5-a]pyridin-5-ylamino)cyclohexanol]
250 to 500	Cc1cncc(Nc2nc3cccc(N[C@H]4CC[C@@H](O)CC4)n3n2)c1 [Example 390, cis-4-(2-(5-methylpyridin-3-ylamino)-[1,2,4]triazolo[1,5-a]pyridin-5-ylamino)cyclohexanol]
0.005 to 250	COc1cccc(Nc2nc3cccc(N[C@H]4CC[C@@H](O)CC4)n3n2)c1 [Example 338, cis-4-(2-(3-methoxyphenylamino)-[1,2,4]triazolo[1,5-a]pyridin-5-ylamino)cyclohexanol]
0.005 to 250	O[C@H]1CC[C@@H](Nc2cccc3nc(Nc4ccc5cn[nH]c5c4)nn23)CC1 [Example 365, cis-4-(2-(1H-indazol-6-ylamino)-[1,2,4]triazolo[1,5-a]pyridin-5-ylamino)cyclohexanol]

Same assay, conditions: read-out: Activity Level (Syk HTRF assay IC50)

SMILES	IC50 [nM]
CC1(C)C(=O)Nc2cc(Nc3nc4cccc(N[C@@H]5CCCNC5)n4n3)ccc21 [compound 131, (R)-3,3-dimethyl-6-(5-(piperidin-3-ylamino)-[1,2,4]triazolo[1,5-a]pyridin-2-ylamino)indolin-2-one]	0.005 to 250
CN1C(=O)Cc2ccc(Nc3nc4cccc(N[C@H]5CC[C@@H](O)CC5)n4n3)cc21 [Example 192, cis-6-(5-(4-hydroxycyclohexylamino)-[1,2,4]triazolo[1,5-a]pyridin-2-ylamino)-1-methylindolin-2-one]	0.005 to 250
CC1(C)NC(=O)c2cc(Nc3nc4cccc(N[C@H]5CC[C@H](O)CC5)n4n3)ccc21 (stereo in doubt) [Example 137, trans-6-(5-(4-hydroxycyclohexylamino)-[1,2,4]triazolo[1,5-a]pyridin-2-ylamino)-3,3-dimethylisoindolin-1-one]	500 to 1000
CC1(C)C(=O)Nc2cc(Nc3nc4cccc(Cc5cc[nH]c(=O)c5)n4n3)ccc21 [Example 156, 3,3-dimethyl-6-(5-((2-oxo-1,2-dihydropyridin-4-yl)methyl)-[1,2,4]triazolo[1,5-a]pyridin-2-ylamino)indolin-2-one]	0.005 to 250
Cc1n[nH]c2cc(Nc3nc4cccc(CN5CC(C)(O)C5)n4n3)ccc12 [Example 169, 3-methyl-1-((2-(3-methyl-1H-indazol-6-ylamino)-[1,2,4]triazolo[1,5-a]pyridin-5-yl)methyl)azetidin-3-ol]	250 to 500
CNC(=O)c1ccc(Nc2nc3cccc(-c4cccc(CN)c4)n3n2)cc1 [compound 33, 4-(5-(3-(aminomethyl)phenyl)-[1,2,4]triazolo[1,5-a]pyridin-2-ylamino)-N-methylbenzamide]	0.005 to 250

Results, then the compound that gave them:

IC50 [nM]	SMILES
250 to 500	CNC(=O)c1ccc(Nc2nc3cccc(-c4cccc(F)c4)n3n2)cc1 [compound 12, 4-(5-(3-fluorophenyl)-[1,2,4]triazolo[1,5-a]pyridin-2-ylamino)-N-methylbenzamide]
0.005 to 250	CNC(=O)c1ccc(Nc2nc3cccc(-c4cccc(CCCN)c4)n3n2)cc1 [compound 8, 4-(5-(3-(3-aminopropyl)phenyl)-[1,2,4]triazolo[1,5-a]pyridin-2-ylamino)-N-methylbenzamide]
0.005 to 250	CC1(C)C(=O)Nc2cc(Nc3nc4cccc(N5CCC(O)CC5)n4n3)ccc21 [compound 114, 6-(5-(4-hydroxypiperidin-1-yl)-[1,2,4]triazolo[1,5-a]pyridin-2-ylamino)-3,3-dimethylindolin-2-one]
1000 to 10000	N#Cc1cccc(Nc2nc3cccc(-c4ccccc4)n3n2)c1 [compound 66, 3-(5-phenyl-[1,2,4]triazolo[1,5-a]pyridin-2-ylamino)benzonitrile]
0.005 to 250	CC1(C)C(=O)Nc2cc(Nc3nc4cccc(NC5CCCNC5)n4n3)ccc21 (stereo in doubt) [Example 154, (S)-3,3-dimethyl-6-(5-(piperidin-3-ylamino)-[1,2,4]triazolo[1,5-a]pyridin-2-ylamino)indolin-2-one]
0.005 to 250	Cc1nn(C)c2cc(Nc3nc4cccc(N[C@H]5CC[C@@H](O)CC5)n4n3)cc(F)c12 [Example 149, cis-4-(2-(4-fluoro-1,3-dimethyl-1H-indazol-6-ylamino)-[1,2,4]triazolo[1,5-a]pyridin-5-ylamino)cyclohexanol]
